Data set [1] concerns the target T1, recombinant Btk kinase enzyme (Homo sapiens, UniProt Q06187).
T1 construct: purchased SignalChem B10-10H
Description: In vitro inhibition of Btk kinase activity (ADP-Glo). The format is biochemical. The note with it: read-out: IC50 kinase BTK. In a few lines: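 IC50 obtained by four-parameter logistic fitting of ADP-Glo luminescence, which reports ADP generated by the kinase. Reaction: recombinant Btk enzyme, 50 μM ATP, 0.5 mg/mL Poly(4:1 Glu,Tyr) peptide, incubated 180 minutes at 37° C. with test compound.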
For orientation: ADP-Glo first removes unused ATP, then detects ADP through luciferase.

Data set [2] addresses T2, ITK (Homo sapiens, UniProt Q08881).
T2 construct: purchased SignalChem I13-10G
T2 sequence (Q08881 1-620): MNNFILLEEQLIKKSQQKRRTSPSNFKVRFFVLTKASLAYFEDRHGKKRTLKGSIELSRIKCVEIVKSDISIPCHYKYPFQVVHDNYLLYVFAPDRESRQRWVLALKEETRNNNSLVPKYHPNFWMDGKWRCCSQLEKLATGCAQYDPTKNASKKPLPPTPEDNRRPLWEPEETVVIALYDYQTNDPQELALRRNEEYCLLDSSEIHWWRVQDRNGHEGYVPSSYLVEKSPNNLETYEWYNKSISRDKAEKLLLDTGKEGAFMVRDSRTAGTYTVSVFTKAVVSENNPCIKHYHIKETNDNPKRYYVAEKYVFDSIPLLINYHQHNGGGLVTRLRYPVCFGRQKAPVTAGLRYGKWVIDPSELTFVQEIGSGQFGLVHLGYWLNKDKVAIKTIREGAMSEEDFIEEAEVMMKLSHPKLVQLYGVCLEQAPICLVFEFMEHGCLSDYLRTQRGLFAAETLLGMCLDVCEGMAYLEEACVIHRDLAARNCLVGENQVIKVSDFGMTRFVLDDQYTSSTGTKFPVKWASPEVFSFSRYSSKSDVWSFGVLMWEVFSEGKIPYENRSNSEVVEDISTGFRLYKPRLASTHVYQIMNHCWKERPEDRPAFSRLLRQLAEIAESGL
The experiment in a line: In vitro kinase panel: ITK. Type of data set: biochemical. The note with it: Table 9 kinase panel. As for the experimental part: (§1) The measurements were carried out in a 25 μL reaction volume using a 96-well plate (Corning, #3642). The kinase enzyme and inhibitor were pre-incubated for 10 minutes in the reaction buffer containing 25 mM of MOPS (pH 7.2), 12.5 mM of 0-glycerophosphate, 27 mM of MgCl2, 2 mM of MnCl2, 5 mM of EGTA, 2 mM of EDTA, 0.3 mM of DTT, and 1.2 mg/mL of bovine serum albumin. Staurosporine (Abcam Biochemicals, ab146588) was used as a reference inhibitor and 0.1% DMSO in the reaction buffer—as a negative control. The solution of 0.5 mg/mL peptide substrate and 50 &M ATP in the same buffer were added; the solution was incubated for 180 minutes at 37° C. To detect the amount of ATP taken up during the kinase reaction, the equivalent amount of ADP (from the ADP Glo Detection Kit (Promega, #V9101)) was used according to the protocol. The reaction mixture was equilibrated to room temperature. 25 µL of ADP-Glo Reagent were added into each well; the plate was incubated for 40 minutes. 50 μL of Kinase Detection Reagent were added; the plate was incubated for 30 minutes. The luminescence was measured with multimode plate reader (Tecan Infinite M200Pro, Switzerland). IC50 values were calculated using Magellan 7.2 software (Tecan, Switzerland) approximating experimental points by four-parameter logistic model with the optimization by Levenberg-Marquardt.
(§2) For active compounds selected by screening using the target enzyme BTK, the values of IC50 were determined on a kinase panel: EGFR (SignalChem, #E10-11G), ITK (SignalChem, #I13-10G) and TEC (SignalChem, #T03-10G).

The target of data set [3] is T3, TEC (Homo sapiens, UniProt P42680).
T3 construct: purchased SignalChem T03-10G
T3 sequence (P42680 1-631): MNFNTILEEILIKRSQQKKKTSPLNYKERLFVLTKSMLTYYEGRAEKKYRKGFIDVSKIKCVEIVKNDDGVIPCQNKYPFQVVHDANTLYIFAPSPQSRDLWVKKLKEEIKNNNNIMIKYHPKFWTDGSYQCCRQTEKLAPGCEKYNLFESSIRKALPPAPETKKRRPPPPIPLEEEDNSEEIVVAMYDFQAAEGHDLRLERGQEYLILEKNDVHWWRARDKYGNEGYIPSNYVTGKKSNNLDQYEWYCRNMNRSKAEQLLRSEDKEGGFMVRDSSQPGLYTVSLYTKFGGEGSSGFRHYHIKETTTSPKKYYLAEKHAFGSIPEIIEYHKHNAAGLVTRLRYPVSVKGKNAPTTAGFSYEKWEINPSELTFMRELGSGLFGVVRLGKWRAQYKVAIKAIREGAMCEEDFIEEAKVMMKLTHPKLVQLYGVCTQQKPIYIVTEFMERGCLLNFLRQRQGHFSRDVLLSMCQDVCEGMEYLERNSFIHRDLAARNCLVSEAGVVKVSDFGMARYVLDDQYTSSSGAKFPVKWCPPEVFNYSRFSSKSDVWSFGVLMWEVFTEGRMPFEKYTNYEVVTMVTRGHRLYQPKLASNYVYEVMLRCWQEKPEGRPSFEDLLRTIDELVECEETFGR
The experiment in a line: In vitro kinase panel: TEC. The note with it: Table 9 kinase panel. Type of data set: biochemical. As for the experimental part: as §1, §2

In data set [4] the test system is HepG2 cells (hepatocellular carcinoma). The experiment in a line: General cytotoxicity on HepG2 cells (CC50; therapeutic index CC50 HepG2/IC50 Mino). The format is cell-based. The note with it: therapeutic index. In a few lines:
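Alamar Blue viability after 72 h exposure to compounds (final 200 μM–4 μM) gave CC50; HepG2 plated 2*10^4/well in DMEM 24 h beforehand. Therapeutic index expressed as ratio of HepG2 CC50 to Mino antiproliferative IC50.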

Where two headings read alike, the source gives them in different places.

In general, IC50 refers to the concentration needed to halve the response being measured.

T1 sequence (Q06187 whole entry): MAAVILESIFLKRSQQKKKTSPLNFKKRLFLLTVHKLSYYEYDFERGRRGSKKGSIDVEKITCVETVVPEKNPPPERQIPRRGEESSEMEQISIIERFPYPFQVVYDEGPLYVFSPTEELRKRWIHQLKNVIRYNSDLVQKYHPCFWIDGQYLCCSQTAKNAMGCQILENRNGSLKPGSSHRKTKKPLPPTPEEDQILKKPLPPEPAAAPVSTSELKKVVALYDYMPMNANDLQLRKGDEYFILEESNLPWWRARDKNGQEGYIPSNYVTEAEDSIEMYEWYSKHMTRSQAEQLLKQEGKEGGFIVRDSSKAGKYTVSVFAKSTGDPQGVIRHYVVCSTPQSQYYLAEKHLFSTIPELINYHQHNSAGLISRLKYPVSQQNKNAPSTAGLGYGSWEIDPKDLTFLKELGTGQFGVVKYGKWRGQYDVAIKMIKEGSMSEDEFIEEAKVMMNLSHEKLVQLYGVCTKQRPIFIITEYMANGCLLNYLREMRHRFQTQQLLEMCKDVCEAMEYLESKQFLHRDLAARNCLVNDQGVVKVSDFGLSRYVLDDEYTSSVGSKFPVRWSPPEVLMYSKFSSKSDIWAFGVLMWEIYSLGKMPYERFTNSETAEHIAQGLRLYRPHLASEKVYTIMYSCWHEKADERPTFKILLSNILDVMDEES

Turning to `C=CC(=O)N1CCC[C@@H](n2nc(-c3ccc(C(=O)Nc4ccccn4)cc3)c3cncc(Cl)c32)C1` [BCD-BTK-201], the IC50 was 19.1 nM in data set [1] (Table 8, ADP-Glo); greater than 300 nM in data set [2]; 55.2 nM in data set [3]. Further, the “CC50 (HepG2)/IC50 (Mino)” value in data set [4] (Table 10) is listed as greater than 4.20.

`C=CC(=O)N1CCC[C@@H](n2nc(-c3ccc(C(=O)Nc4cc(C(F)(F)F)ccn4)cc3)c3c(N)ncc(Cl)c32)C1` [BCD-BTK-251, (R)-4-(1-(1-acryloylpiperidin-3-yl)-4-amino-7-chloro-1H-pyrazolo[4,3-c]pyridin-3-yl)-N-(4-(trifluoromethyl)pyridin-2-yl)benzamide]: the IC50 turned out to be 2.71 nM in data set [1] (Table 8, ADP-Glo); 10.1 nM in data set [2]; 7.21 nM in data set [3]. Also, in data set [4] (Table 10), the “CC50 (HepG2)/IC50 (Mino)” value was greater than 13.70.

Turning to `C=CC(=O)N1CCC[C@@H](n2nc(-c3ccc(C(=O)Nc4cc(C(F)(F)CCC)ccn4)cc3)c3cncc(Cl)c32)C1` [BCD-BTK-252, (R)-4-(1-(1-acryloylpiperidin-3-yl)-7-chloro-1H-pyrazolo[4,3-c]pyridin-3-yl)-N-(4-(1,1-difluorobutyl)pyridin-2-yl)benzamide], the half-maximal inhibitory concentration (IC50) in data set [1] (Table 8, ADP-Glo) is 14.6 nM; in data set [2] it was greater than 1000 nM; in data set [3] it was greater than 100 nM. In addition, in data set [4] (Table 10), the “CC50 (HepG2)/IC50 (Mino)” value is greater than 22.43.

With `C=CC(=O)N1CCC[C@@H](n2nc(-c3ccc(Oc4ccncc4)cc3)c3c(N)ncc(OC)c32)C1` [BCD-BTK-239, (R)-1-(1-acryloylpiperidin-3-yl)-4-amine-7-methoxy-3-(4-(pyridin-4-yloxy)phenyl)-1H-pyrazolo[4,3-c]pyridine], the IC50 in data set [1] (Table 8, ADP-Glo) was 2.38 nM; in data set [2], 24.9 nM; in data set [3], 6 nM. For the same compound, in data set [4] (Table 10), the “CC50 (HepG2)/IC50 (Mino)” value was 4.24.

Take `C=CC(=O)N1CCC[C@@H](n2nc(-c3ccc(Oc4cccnc4C#N)cc3)c3cncc(F)c32)C1` [BCD-BTK-230, (R)-3-(4-(1-(1-acryloylpiperidin-3-yl)-7-fluoro-1H-pyrazolo[4,3-c]pyridin-3-yl)phenoxy)picolinonitrile]: the IC50 in data set [1] (Table 8, ADP-Glo) was 10.5 nM; in data set [2], greater than 1000 nM; in data set [3], greater than 200 nM. Besides, the “CC50 (HepG2)/IC50 (Mino)” value in data set [4] (Table 10) came out at 5.87.

For the compound `C=CC(=O)N1CCC[C@@H](n2nc(-c3cnc(C(=O)Nc4cc(C(F)(F)CCC)ccn4)nc3)c3cncc(Cl)c32)C1` [BCD-BTK-292, (R)-5-(1-(1-acryloylpiperidin-3-yl)-7-chloro-1H-pyrazolo[4,3-c]pyridin-3-yl)-N-(4-(1,1-difluorobutyl)pyridin-2-yl)pyrimidine-2-carboxamide], the IC50 is 7.34 nM in data set [1] (Table 8, ADP-Glo); 63.5 nM in data set [2]; 77.8 nM in data set [3]. In addition, the “CC50 (HepG2)/IC50 (Mino)” value in data set [4] (Table 10) was greater than 29.81.

`C=CC(=O)N1CCC[C@@H](n2nc(-c3ccc(Oc4cccnc4C(N)=O)cc3)c3cncc(Cl)c32)C1` [BCD-BTK-220, 3-(4-{7-chloro-1-[(3R)-1-(prop-2-enoyl)piperidin-3-yl]-1H-pyrazolo[4,3-c]pyridin-3-yl}phenoxy)pyridine-2-carboxamide]: the half-inhibitory concentration (IC50) in data set [1] (Table 8, ADP-Glo) is 53.5 nM; in data set [2] it was greater than 300 nM; in data set [3] it was greater than 100 nM. In addition, in data set [4] (Table 10), the “CC50 (HepG2)/IC50 (Mino)” value is greater than 9.51.

On to `C=CC(=O)N1CCC[C@@H](n2nc(-c3ccc(C(=O)Nc4ncccc4F)cc3)c3c(N)ncc(C#N)c32)C1` [BCD-BTK-258, 4-{4-amino-7-cyano-1-[(3R)-1-(prop-2-enoyl)piperidin-3-yl]-1H-pyrazolo[4,3-c]pyridin-3-yl}-N-(3-fluoropyridin-2-yl)benzamide], for which the concentration for half-maximal inhibition (IC50) is 1.17 nM in data set [1] (Table 8, ADP-Glo); 33.3 nM in data set [2]; 2.92 nM in data set [3]. Moreover, in data set [4] (Table 10), the “CC50 (HepG2)/IC50 (Mino)” value is greater than 2.89.

Regarding `C=CC(=O)N1CCC[C@@H](n2nc(-c3ccc(Oc4ccncc4)cc3)c3cncc(Cl)c32)C1` [BCD-BTK-125, (R)-1-(1-acryloylpiperidin-3-yl)-7-chloro-3-(4-(pyridin-4-yloxy)phenyl)-1H-pyrazolo[4,3-c]pyridine], the half-inhibitory concentration (IC50) in data set [1] (Table 9 kinase panel) was 109 nM; in data set [2], greater than 1000 nM. In data set [4] (Table 11), the “CC50 (HepG2)/IC50 (Mino)” value is on record as 4.18.

Consider `C=CC(=O)N1CCC[C@@H](n2nc(-c3ccc(Oc4ccncc4C#N)cc3)c3cncc(Cl)c32)C1` [BCD-BTK-202, (R)-4-(4-(1-(1-acryloylpiperidin-3-yl)-7-chloro-1H-pyrazolo[4,3-c]pyridin-3-yl)phenoxy)nicotinonitrile], for which the IC50 is 74.6 nM in data set [1] (Table 8, ADP-Glo); greater than 500 nM in data set [2]; greater than 500 nM in data set [3]. Besides, the “CC50 (HepG2)/IC50 (Mino)” value in data set [4] (Table 10) is 4.10.

As to `C=CC(=O)N1CCC[C@@H](n2nc(-c3ccc(Oc4ccncc4)cc3)c3c(N)ncc(Cl)c32)C1` [BCD-BTK-139, (R)-1-(1-acryloylpiperidin-3-yl)-7-chloro-3-(4-(pyridin-4-yloxy)phenyl)-1H-pyrazolo[4,3-c]pyridin-4-amine], the IC50 was found to be 0.85 nM in data set [1] (Table 9 kinase panel) and 200 nM in data set [2]. In addition, the “CC50 (HepG2)/IC50 (Mino)” value in data set [4] (Table 11) turned out to be 3.88.

As to `C=CC(=O)N1CCC[C@@H](n2nc(-c3ccc(C(=O)Nc4ccccn4)cc3)c3c(N)nccc32)C1` [BCD-BTK-242, (R)-4-(1-(1-acryloylpiperidin-3-yl)-4-amino-1H-pyrazolo[4,3-c]pyridin-3-yl)-N-(pyridin-2-yl)benzamide], the IC50 in data set [1] (Table 8, ADP-Glo) came to 1.77 nM; in data set [2], 11 nM; in data set [3], 6.61 nM. Further, in data set [4] (Table 10), the “CC50 (HepG2)/IC50 (Mino)” value is 3.03.

In the case of `C=CC(=O)N1CCC[C@@H](n2nc(-c3ccc(C(=O)Nc4ccccn4)cc3)c3c(N)ncc(C#N)c32)C1` [BCD-BTK-234, (R)-4-(1-(1-acryloylpiperidin-3-yl)-4-amino-7-cyano-1H-pyrazolo[4,3-c]pyridin-3-yl)-N-(pyridine-2-yl)benzamide], the 50% inhibitory concentration (IC50) in data set [1] (Table 8, ADP-Glo) turned out to be 1.17 nM; in data set [2], 25.4 nM; in data set [3], 14.8 nM. Moreover, the “CC50 (HepG2)/IC50 (Mino)” value in data set [4] (Table 10) came out at 3.81.

For `C=CC(=O)N1CCC[C@@H](n2nc(-c3ccc(C(=O)Nc4ccccn4)cc3)c3c(N)ncc(OC)c32)C1` [BCD-BTK-240, (R)-4-(1-(1-acryloylpiperidin-3-yl)-4-amino-7-methoxy-1H-pyrazolo[4,3-c]pyridin-3-yl)-N-(pyridin-2-yl)benzamide], the IC50 in data set [1] (Table 8, ADP-Glo) is 2.25 nM; in data set [2], 7.78 nM; in data set [3], 3.81 nM. Also, the “CC50 (HepG2)/IC50 (Mino)” value in data set [4] (Table 10) is given as greater than 7.11.

The values are drawn from patent US20190352276A1, “INHIBITORS OF BRUTON'S TYROSINE KINASE” (Joint Stock Company "Biocad", priority 2016, published 2019).
